Biological target: T1, porcine pancreatic elastase (PPE) (Sus scrofa, UniProt P00772)
T1 construct: gene CELA1; commercial native enzyme from porcine pancreas (Sigma Aldrich); PDB 1QGF printed for the docking model of PPE
Test: spectrophotometric, p-nitroaniline release at […] nm
Type: biochemical
Conditions: read-out: IC50 Values / EI (μg/mL) (converted)

T1 sequence (P00772 27-266): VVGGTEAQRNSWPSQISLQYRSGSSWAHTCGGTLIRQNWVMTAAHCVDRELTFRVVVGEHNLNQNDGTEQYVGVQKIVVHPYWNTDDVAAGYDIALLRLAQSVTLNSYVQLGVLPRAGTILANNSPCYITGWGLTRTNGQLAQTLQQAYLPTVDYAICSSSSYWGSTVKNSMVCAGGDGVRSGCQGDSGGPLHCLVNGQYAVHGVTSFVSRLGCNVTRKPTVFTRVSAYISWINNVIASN

With `O=C(O[C@@H]1Cc2c(O)cc(O)cc2O[C@@H]1c1cc(O)c(O)c(O)c1)c1cc(O)c(O)c(O)c1` [epigallocatechin gallate] the IC50 was 759 µM.

Reference: publication PMC12473510, “Multidisciplinary Bioanalytical Approach to Assess the Anti-Aging Properties of Flower Petals—A Promising Sustainable Cosmetic Ingredient” (Plants, 2025)
